Columns and labels:
[1] = tested on: IRF3 translocation induced by dsDNA (ISD); test: IRF3 translocation inhibition, confocal/immunofluorescence after ISD transfection; format: cell-based; details: Homo sapiens, % means blockage of IRF3 translocation induced by dsDNA (ISD)
Description: Inhibition of IFNβ expression was measured by Luciferase induction at 24 hours after transfection of ISD. […]. […] FIG. 3H qPCR of IFNβ 1 performed in MEFs treated same as in FIG. 3A. FIG. 3I qPCR of CCL5 performed in MEFs treated same as in FIG. 3A.
Immunofluorescence Microscopy: Cells were cultured and treated in their appropriate media on Lab-Tek II chamber slides. Cell were fixed with 4% paraformaldehyde for 15 minutes in at 37° C. and permeabilized with 0.05% Triton X-100 for 5 minutes at room temperature. Immunostaining was performed with rabbit-anti-STING polyclonal, rabbit-anti-IRF3 (Santa Cruz Biotechnology) or rabbit-anti-p65 (Cell Signaling) followed by fluorescence conjugated secondary antibodies (FITC-goat-anti-rabbit) (Invitrogen).

pIRF3, pSTING = test: Western blot of pIRF3, pSTING, pTBK1 after ISD transfection in hTERT cells; format: cell-based, human; details: Homo sapiens
Description: FIG. 1C are photographs showing Western blot analysis of STING, phospho-TBK1 (pTBK1) and phospho-IRF3 (pIRF3) performed at 6 hours after ISD transfection with/without W1 treatment same as FIG. 1A, Mock is shown (210), ISD treatment only (220) was used as a control, according to an embodiment of the invention;
Immunoblot analysis: Equal amounts of proteins were resolved on sodium dodecyl sulfate (SDS)-Polyacrylamide gels and then transferred to polyvinylidene fluoride (PVDF) membranes (Millipore). After blocking with 5% Blocking Reagent, membranes were incubated with various primary antibodies (and appropriate secondary antibodies). The image was resolved using an enhanced chemiluminescence system ECL (Thermo Scientific) and detected by autoradiography (Kodak). Antibodies: rabbit polyclonal antibody against STING was developed in our laboratory as described previously in Ishikawa et al, 2008; other antibodies were obtained from following sources: β-actin (Sigma Aldrich), p-IRF3 (Cell Signaling), IRF3 (Santa Cruz Biotechnology), p-p65 (Cell Signaling), p65 (Cell Signaling), p-TBK1 (Cell Signaling), TBK1 (Abcam), cGAS (Cell Signaling).

[2] = tested on: IFNβ expression (type I IFNβ promoter driving luciferase); test: IFNβ promoter luciferase assay in hTERT-pIFNβ-Glu cells transfected with ISD; format: cell-based, human; details: Homo sapiens
Description: Inhibition of IFNβ expression was measured by Luciferase induction at 24 hours after transfection of ISD, DMSO is shown (230), ISD treatment only (220) was used as a control, according to an embodiment of the invention;
Inhibition of IFNβ expression was measured by Luciferase induction at 24 hours after transfection of ISD, Mock is shown (210), ISD treatment only (220) was used as a control, according to an embodiment of the invention;
Identification of small molecule inhibitors of STING. In the presence of cytosolic DNA species, STING becomes activated to drive the transcription of cytokines such as type I IFN. Compounds binding to STING via TSA were subsequently examined for their ability to prevent cytosolic DNA species from activating the type I interferon (IFN) promoter, using a live cell assay. This assay comprised immortalized human fibroblasts (hTERT) that were stably transfected with the type I IFN promoter driving luciferase as well as the CMV promoter driving SEAP (hTERT-pIFNβ-Glu). The live cell assay has previously been disclosed in PCT/US2019/025380 entitled IFN-Beta Reporter System for Immortalized Primary Cells inventor Glen N. Barber, which was filed Apr. 2, 2018 and published as WO2019195285, and which is herein incorporated by reference in its entirety and for all purposes. The ability of the small molecules to prevent activation of the type I IFN promoter and the transcription of luciferase, but not SEAP in response to cytosolic DNA species was assessed. The activation of STING, typically by CDNs, in turn activates the transcription factors NF-κB and IRF3, both of which are required to induce the transcriptional stimulation of the Type I IFN promoter, but not the CMV promoter as IRF3 and NF-kB transcription factor binding sites are not contained in the CMV promoter. The assay identified the small molecule Compound W1 in the first screen (HTS), where the level of luciferase was not able to activate the type I IFN promoter or induce the expression of luciferase (see Table I and Table II).
Inhibition of IFNβ expression was measured by Luciferase induction at 24 hours after transfection of ISD. ISD only treatment was used as control.
Inhibition of IFNβ expression was measured by Luciferase induction at 24 hours after transfection of ISD, Mock is shown (210), ISD treatment only (220) was used as a control.
Luciferase assay: hTERT-BJ1 Telomerase Fibroblasts stably expressing the luciferase gene under the control of the interferon-beta promoter and SEAP gene under control of the CMV promoter) (hTERT-pIFNβ-Glu) were generated by the Barber laboratory. Luciferase assay was performed using Secrete-Pair Dual Luminescence Assay Kit from GeneCopoeia following the manufacturer's protocol.

Structure (SMILES)	inhibition at 25 µM [1]	inhibition at 10 µM (pIRF3, pSTING)	inhibition at 5 µM [2]
COc1ccc(-c2nc(CN3CCN(c4cc(C)nc(N(C)C)n4)CC3)cs2)cc1OC [Compound W3, 4-(4-{[2-(3,4-dimethoxyphenyl)-1,3-thiazol-4-yl]methyl}piperazin-1-yl)-N,N,6-trimethylpyrimidin-2-amine]	40 to 50%	40 to 50%	-37%
COc1ccc(-c2nc(CN3CCN(c4nc(C)nc(N(C)C)n4)CC3)cs2)cc1OC [Compound W4, 4-(4-{[2-(3,4-dimethoxyphenyl)-1,3-thiazol-4-yl]methyl}piperazin-1-yl)-N,N,6-trimethyl-1,3,5-triazin-2-amine]	–	< 10%	4%
COc1ccc(-c2nc(CN3CCN(c4nc(C)cc(C(C)C)n4)CC3)cs2)cc1OC [Compound W5, 2-(4-{[2-(3,4-dimethoxyphenyl)-1,3-thiazol-4-yl]methyl}piperazin-1-yl)-4-methyl-6-(propan-2-yl)pyrimidine]	–	< 10%	18%
Cc1cc(N2CCN(Cc3csc(-c4ccc(C(F)(F)F)cc4)n3)CC2)nc(N(C)C)n1 [Compound W11, N,N,4-trimethyl-6-[4-({2-[4-(trifluoromethyl)phenyl]-1,3-thiazol-4-yl}methyl)piperazin-1-yl]pyrimidin-2-amine]	90 to 100%	90 to 100%	38%
COc1ccc(-c2nc(CN3CCN(c4cc(C)nc(N(C)C)n4)CC3)cs2)c(OC)c1 [Compound W13, 4-(4-{[2-(2,4-dimethoxyphenyl)-1,3-thiazol-4-yl]methyl}piperazin-1-yl)-N,N,6-trimethylpyrimidin-2-amine]	40 to 50%	90 to 100%	30%
Cc1cc(N2CCN(Cc3csc(-c4ccc(Cl)cc4)n3)CC2)nc(N(C)C)n1 [Compound W14, 4-(4-{[2-(4-chlorophenyl)-1,3-thiazol-4-yl]methyl}piperazin-1-yl)-N,N,6-trimethylpyrimidin-2-amine]	~70%	90 to 100%	42%
CCc1ccc(-c2nc(CN3CCN(c4cc(C)nc(N(C)C)n4)CC3)cs2)cc1 [Compound W15]	90 to 100%	90 to 100%	69%
Cc1cc(N2CCN(Cc3cnc(-c4ccccc4)s3)CC2)nc(N(C)C)n1 [Compound W19, N,N,4-trimethyl-6-{4-[(2-phenyl-1,3-thiazol-5-yl)methyl]piperazin-1-yl}pyrimidin-2-amine]	–	< 10%	76%
Cc1cc(N2CCN(Cc3ncc(-c4ccccc4)s3)CC2)nc(N(C)C)n1 [Compound W20, N,N,4-trimethyl-6-{4-[(5-phenyl-1,3-thiazol-2-yl)methyl]piperazin-1-yl}pyrimidin-2-amine]	40 to 50%	< 10%	79%
